How the values were obtained:
[1] = system: hTERT; experiment: Secreted alkaline phosphatase (SEAP) assay, PhTERT-SEAP (H1299); type: cell-based; settings: Homo sapiens, 24 hours; for activity at 1 µM: NCI-H1299, Conc. 1 μM, read-out: Relative SEAP activity (%); for activity at 10 µM: NCI-H1299, Conc. 10 μM; for activity at 10 µM / activity at 100 µM: read-out: Relative SEAP activity (%) (converted); for activity at 100 µM: NCI-H1299, Conc. 100 μM
Method: H1299 were grown in RPMI 1640 media supplemented with 10% fetal bovine serum, 100 units/mL penicillin and […] streptomycin in a humidified atmosphere with 5% CO2 at 37° C. Culture media were changed every three days. To establish stable cell lines that the expression of hTERT could be monitored by a reporter system, a about 3.3 kbp DNA fragment ranging from −3338 to +1 bp of the hTERT gene (hTERT promoter, PhTERT) was subcloned upstream to a secreted alkaline phosphatase gene (SEAP) and transfected into H1299 by electroporation. The stable clones were selected using G418. The stable clones derived from H1299 were cultured using conditions that are similar to their parental cells.
Secreted alkaline phosphatase was used as the reporter system to monitor the transcriptional activity of hTERT. Here, about 10^4 cells each were grown in 96-well plates and incubated at 37° C. for 24 hours and changed with fresh media. Varying amounts of drugs were added and cells were incubated for another 24 hours. Culture media were collected and heated at 65° C. for 10 min to inactivate heat-labile phosphatases. An equal amount of SEAP buffer (2 M diethanolamine, 1 mM MgCl2, and 20 mM L-homoarginine) was added to the media and p-nitrophenyl phosphate was added to a final concentration of 12 mM. Absorptions at 405 nm were taken, and the rate of absorption increase is determined (the increasing rate of absorbance at 405 nm was used to represent the activity of SEAP).

[2] = MTT assay, PhTERT-SEAP (H1299); type: cell-based, human; settings: human, H1299 cells carrying the PhTERT-SEAP reporter, PhTERT-SEAP (H1299); for viability at 1 μM: Conc. 1 μM, read-out: Relative MTT viability (%); for viability at 10 μM: Conc. 10 μM; for viability at 10 μM / viability at 100 μM: read-out: Relative MTT viability (%) (converted); for viability at 100 μM: Conc. 100 μM
Method: Further, cells were subjected to MTT assay to compare the relative toxicity or effect of each compound on cell proliferation and activity.
The above-described cells are cultured in a 96-well plate, to which was added with 25 μl MTT solution, and cultured in a 37° C. carbon dioxide incubator for 4 hours. Then, 100 μl Lysis buffer is added and incubated in a 37° C. carbon dioxide incubator overnight. An ELISA reader (Bio-Rad Model 450) is used to read optical density (O.D.) at 550 nm.

| melting point [°C] | SMILES | activity at 1 µM [1] [%] | activity at 10 µM [1] [%] | activity at 100 µM [1] [%] | viability at 1 μM [2] [%] | viability at 10 μM [2] [%] | viability at 100 μM [2] [%] |
| --- | --- | --- | --- | --- | --- | --- | --- |
| 166 to 167 | Cc1ccc(C(=O)Nc2c(NC(=O)CN(C)CCc3ccccn3)ccc3c2C(=O)c2ccccc2C3=O)cc1 [CC-37, 4-methyl-N-(2-(2-(methyl(2-(pyridin-2-yl)ethyl)amino)acetamido)-9,10-dioxo-9,10-dihydroanthracen-1-yl)benzamide] | 90.6 ± 1.48 | 11.9 | 1.47 | 94.9 ± 6.49 | 46.2 | 22 |
| 224 to 225 | O=C(CCl)Nc1ccc2c(c1NC(=O)c1ccc(Cl)cc1)C(=O)c1ccccc1C2=O [CC-18, 1-(4-chlorobenzamido)-2-(chloroacetamido)-anthraquinone] | 98.7 ± 5.6 | 6.26 | 4.95 | 92.4 ± 7.16 | 5.17 | 4.25 |
| 187 to 188 | O=C(CCl)Nc1ccc2c(c1NC(=O)c1cc(C(F)(F)F)ccc1C(F)(F)F)C(=O)c1ccccc1C2=O [CC-22, 1-1-[2,5-bis-(trifluoromethyl)benzamido]-2-(chloroacetamido)-anthraquinone] | 90.3 ± 1.77 | 5.11 | 4.11 | 86.7 ± 2.13 | 8.81 | – |
| 213 to 214 | O=C(CCl)Nc1ccc2c(c1NC(=O)Cc1ccc(F)cc1)C(=O)c1ccccc1C2=O [CC-24, 1-[2-(4-fluorophenyl)acetylamino]-2-(chloroacetamido)-anthraquinone] | 93.1 ± 5.96 | 8.4 | 1.75 | 88.9 ± 5.07 | 7.31 | 6.17 |
| 156 to 157 | Cc1ccc(C(=O)Nc2c(NC(=O)CN(C)CC3OCCO3)ccc3c2C(=O)c2ccccc2C3=O)cc1 [CC-36, 1-(4-methylbenzamido)-2-[2-[(1,3-dioxolan-2-ylmethyl)(methyl)amino]acetylamino]-anthraquinone] | 101 ± 3.01 | 76.5 | 10.2 | 104 ± 2.12 | 88.6 | 3.78 |
| 161 to 162 | O=C(CCl)Nc1ccc2c(c1NC(=O)CSc1ccccc1)C(=O)c1ccccc1C2=O [CC-32, 1-[2-(phenylsulfanyl)acetylamino]-2-(chloroacetamido)-anthraquinone] | 80 ± 4.39 | 3.89 | -0.05 | 88.5 ± 2.25 | 5.73 | – |
| 245 to 246 | O=C(CCl)Nc1ccc2c(c1NC(=O)c1ccccc1F)C(=O)c1ccccc1C2=O [CC-13, 1-(2-fluorobenzamido)-2-(chloroacetamido)-anthraquinone] | 105 ± 12.7 | 5.89 | 2.11 | 78.8 ± 7.83 | 2.77 | – |
| 217 to 218 | O=C(CCl)Nc1ccc2c(c1NC(=O)COc1ccccc1)C(=O)c1ccccc1C2=O [CC-31, 1-[2-(phenoxy)acetylamino]-2-(chloroacetamido)-anthraquinone] | 83 ± 1.98 | 72.9 | 4.7 | 101 ± 4.91 | 66.5 | 4.86 |
| 203 to 204 | O=C(CCl)Nc1ccc2c(c1NC(=O)c1ccccc1)C(=O)c1ccccc1C2=O [CC-09, 1-(benzamido)-2-(chloroacetamido)-anthraquinone] | 96.3 ± 3.31 | 94.7 | 16 | 101 ± 4.37 | 83.8 | 5.38 |
| 203 to 204 | O=C(CCl)Nc1ccc2c(c1NC(=O)c1ccc(C(F)(F)F)cc1)C(=O)c1ccccc1C2=O [CC-21, 1-[4-(trifluoromethyl)benzamido]-2-(chloroacetamido)-anthraquinone] | 85.9 ± 8 | 8.61 ± 0.0611 | 6.49 | 86.3 ± 2.6 | 6.58 | – |
| 154 to 155 | O=C(CCCCl)Nc1ccc2c(c1NC(=O)CCCCl)C(=O)c1ccccc1C2=O [CC-03, 1,2-bis-(4-chlorobutyramido)-anthraquinone] | 114 ± 6.14 | 92.9 | 15.2 | 103 ± 7.01 | 79.9 | 19 |

| SMILES | melting point [°C] | activity at 1 µM [1] [%] | activity at 10 µM [1] [%] | activity at 100 µM [1] [%] | viability at 1 μM [2] [%] | viability at 10 μM [2] [%] | viability at 100 μM [2] [%] |
| --- | --- | --- | --- | --- | --- | --- | --- |
| Cc1ccc(C(=O)Nc2c(NC(=O)CN3CCN(c4ccccc4F)CC3)ccc3c2C(=O)c2ccccc2C3=O)cc1 [CC-46, 1-(4-methylbenzamido)-2-[2-[4-(2-fluorophenyl)piperazino]acetylamino]-anthraquinone] | 228 to 229 | 85 ± 10.8 | 76.2 | 20.1 | 79.8 ± 9.65 | 68.7 | 40.8 |
| Cc1ccc(C(=O)Nc2c(NC(=O)CN3CCC4(CC3)OCCO4)ccc3c2C(=O)c2ccccc2C3=O)cc1 [CC-40, 1-(4-methylbenzamido)-2-[2-(1,4-dioxa-8-azaspiro[4.5]dec-8-yl)acetylamino]-anthraquinone] | 197 to 198 | 78.9 ± 3.67 | 51.6 | 6.67 | 74.3 ± 6.15 | 55.5 | 16.8 |
| COc1ccccc1N1CCN(CC(=O)Nc2ccc3c(c2NC(=O)c2ccc(C)cc2)C(=O)c2ccccc2C3=O)CC1 [CC-48, 1-(4-methylbenzamido)-2-[2-[4-(2-methoxyphenyl)piperazino]acetylamino]-anthraquinone] | 215 to 216 | 83.3 ± 2.81 | 68.3 | 12.2 | 76.4 ± 3.95 | 78.3 | 22.7 |
| Cc1ccc(C(=O)Nc2c(NC(=O)CN3CCN(c4ccccc4)CC3)ccc3c2C(=O)c2ccccc2C3=O)cc1 [CC-45, 1-(4-methylbenzamido)-2-[2-(4-phenylpiperazino)acetylamino]-anthraquinone] | 270 to 271 | 93.2 ± 4.68 | 88.2 | 15.9 | 80.8 ± 6.98 | 77 | 23.2 |
| Cc1ccc(C(=O)Nc2c(NC(=O)CN(C)C)ccc3c2C(=O)c2ccccc2C3=O)cc1 [CC-35, 1-(4-methylbenzamido)-2-[2-(dimethylamino)acetylamino]-anthraquinone] | 190 to 191 | 99.5 ± 3.37 | 78.5 | 9.61 | 107 ± 2.85 | 88.4 | – |
| Cc1ccccc1C(=O)Nc1c(NC(=O)CCl)ccc2c1C(=O)c1ccccc1C2=O [CC-10, 1-(2-methylbenzamido)-2-(chloroacetamido)-anthraquinone] | 179 to 180 | 98.6 ± 7.92 | -3.13 | -5.69 | 73.8 ± 7.94 | – | – |
| Cc1ccc(C(=O)Nc2c(NC(=O)CN3CCN(c4ncccn4)CC3)ccc3c2C(=O)c2ccccc2C3=O)cc1 [CC-50, 1-(4-methylbenzamido)-2-[2-[4-(2-pyrimidinyl)piperazino]acetylamino]-anthraquinone] | 267 to 268 | 87.1 ± 7.97 | 79.5 | 20 | 102 ± 5.76 | 91.5 | 59 |
| O=C(CCCl)Nc1ccc2c(c1NC(=O)CCCl)C(=O)c1ccccc1C2=O [CC-02, 1,2-bis-(3-chloropropionamido)-anthraquinone] | 179 to 180 | 96.3 ± 3.31 | 94.7 | 16 | 101 ± 4.37 | 83.8 | 5.38 |
| Nc1c(NC(=O)CCl)ccc2c1C(=O)c1ccccc1C2=O [CC-05, 1-(amino)-2-(chloroacetamido)-anthraquinone] | 193 to 194 | 42 ± 4.16 | 6.73 ± 0.83 | 3.23 ± 1.22 | 64.3 ± 8.97 | – | – |
